{"source": "patent US20160166565A1", "about": "“TREATMENT OF MULTIPLE SCLEROSIS WITH COMBINATION OF LAQUINIMOD AND FLUPIRTINE” (Teva Pharmaceutical Industries, Ltd., priority 2013, published 2016)", "system": "MOG-induced EAE Mice", "assay": "MOG-induced EAE in mice, laquinimod alone or in combination with flupirtine", "type": "in vivo, mice (C57BL/6)", "details": "oral gavage qd, Day 1 to 30; for inhibition at 30 mg/kg: Mus musculus, vs vehicle", "key": {"[1]": {"details": "0.5% MC + Flupirtin 30 mg/kg/day"}}, "note": "Like-named read-outs stand apart in the source and are kept apart here."}
{"smiles": "CCN(C(=O)c1c(O)c2c(Cl)cccc2n(C)c1=O)c1ccccc1", "note": "[LAQ, 5-chloro-N-ethyl-4-hydroxy-1-methyl-2-oxo-N-phenyl-1,2-dihydroquinoline-3-carboxamide]", "values": [{"measurement": "Duration", "setting": "LAQ 1 mg/kg/day + 0.5% MC", "result": 16.0, "unit": "days"}, {"measurement": "GMS value (group mean score)", "setting": "LAQ 1 mg/kg/day + 0.5% MC", "result": 1.9}, {"measurement": "INC (Incidence)", "setting": "LAQ 1 mg/kg/day + 0.5% MC", "result": "15/15"}, {"measurement": "MMS value (mean maximal score)", "setting": "LAQ 1 mg/kg/day + 0.5% MC", "result": 3.4}, {"measurement": "MORT (Mortality)", "setting": "LAQ 1 mg/kg/day + 0.5% MC", "result": "0/15"}, {"measurement": "Onset", "setting": "LAQ 1 mg/kg/day + 0.5% MC", "result": 14.8, "unit": "days"}, {"measurement": "Duration", "setting": "LAQ 5 mg/kg/day + 0.5% MC", "result": 14.7, "unit": "days"}, {"measurement": "GMS value (group mean score)", "setting": "LAQ 5 mg/kg/day + 0.5% MC", "result": 1.6}, {"measurement": "INC (Incidence)", "setting": "LAQ 5 mg/kg/day + 0.5% MC", "result": "14/15"}, {"measurement": "MMS value (mean maximal score)", "setting": "LAQ 5 mg/kg/day + 0.5% MC", "result": 2.9}, {"measurement": "MORT (Mortality)", "setting": "LAQ 5 mg/kg/day + 0.5% MC", "result": "0/15"}, {"measurement": "Onset", "setting": "LAQ 5 mg/kg/day + 0.5% MC", "result": 15.0, "unit": "days"}]}
{"smiles": "CCOC(=O)Nc1ccc(NCc2ccc(F)cc2)nc1N", "note": "[Flupirtin, ethyl {2-amino-6-[(4-fluorobenzyl)amino]pyridin-3-yl}carbamate]", "values": [{"measurement": "Duration", "setting": "[1]", "result": 17.0, "unit": "days"}, {"measurement": "GMS value (group mean score)", "setting": "[1]", "result": 1.9}, {"measurement": "INC (Incidence)", "setting": "[1]", "result": "15/15"}, {"measurement": "MMS value (mean maximal score)", "setting": "[1]", "result": 3.1}, {"measurement": "MORT (Mortality)", "setting": "[1]", "result": "0/15"}, {"measurement": "Onset", "setting": "[1]", "result": 13.3, "unit": "days"}, {"measurement": "inhibition at 30 mg/kg", "setting": "0.5% MC + Flupirtin 30 mg/kg/day, read-out: INH 1 (percent inhibition according to incidence)", "result": 0, "unit": "%"}, {"measurement": "inhibition at 30 mg/kg", "setting": "0.5% MC + Flupirtin 30 mg/kg/day, read-out: INH 2 (percent inhibition according to MMS)", "result": 11.4, "unit": "%"}, {"measurement": "inhibition at 30 mg/kg", "setting": "0.5% MC + Flupirtin 30 mg/kg/day, read-out: INH 3 (percent inhibition / activity according to GMS)", "result": 17.4, "unit": "%"}]}
